# In patent US20060276340A1, “HERBICIDE COMPOSITION COMPRISING PYRIBAMBENZ-PROPYL OR PYRIBAMBENZ-ISOPROPYL” (Zhejiang Chem-Tech Group Co., Ltd., priority 2003, published 2006):
# Entries after “also recorded” stand apart in the source; their conditions may differ.
# Legend:
# Format in all cases: in vivo
# [1] = system: Alopecurus aequalis; assay: greenhouse pot test, Tables 1-2
# Method: (§1) The test soil is a formulated sandy loam soil. 9.5 centimeter diameter pots are used for herbicidal activity test.
# (§2) The soil in the pot for the pre-emergence test was sprayed one day after planting. The preparation liquid for the treatment prepared by mixing individual single-herbicides was diluted with water to the desired dosage.
# (§3) The pots for post-emergence treatment are placed into a greenhouse and incubated for 7 to 9 days, and then subjected to leave treatment by spraying. The preparation liquid for the treatment prepared by mixing individual single-herbicides was diluted with water to the desired dosage.
# (§4) The treated pots stood for one day, then were placed in a greenhouse and watered regularly. The herbicidal activities of the compositions were evaluated by visual examination after incubating for 14 to 21 days.
# (§5) The herbicidal activities of the compositions were evaluated by plant symptoms such as stunting, deformity, chlorosis, and whitening. 0 represents that the compositions have no herbicidal effect or have safety to crops. 100 represents that the weeds or crops were completely killed.
# [2] = system: Beckmannia syzigachne; assay: greenhouse pot test, Tables 1-2; details: BECSY 2 leaves
# Method: as §1, §2, §3, §4, §5
# [3] = system: Digitrria sanguinalis; assay: greenhouse pot test, Tables 1-2; details: DIGSA 3 leaves
# Method: as §1, §2, §3, §4, §5
# [4] = system: Poa annua; assay: greenhouse pot test, Tables 1-2; details: POAAN 3 leaves
# Method: as §1, §2, §3, §4, §5
# [5] = system: Polypogon fugax; assay: greenhouse pot test, Tables 1-2; details: POLFU 3-4 leaves
# Method: as §1, §2, §3, §4, §5
# [6] = system: Alopecurus aequalis; assay: greenhouse pot test, post-emergence treatment; details: ALOAE 3 leaves
# Method: as §1, §3, §4, §5
# [7] = system: Alopercurus japonicus; assay: greenhouse pot test, post-emergence treatment; details: ALOJA
# Method: as §1, §3, §4, §5
# [8] = system: Cerastium arvense; assay: greenhouse pot test, post-emergence treatment; details: CERAR 6 leaves
# Method: as §1, §3, §4, §5
# [9] = system: Galium aparine; assay: greenhouse pot test, post-emergence treatment
# Method: as §1, §3, §4, §5
# [10] = system: Poa annua; assay: greenhouse pot test, post-emergence treatment; details: POAAN
# Method: as §1, §3, §4, §5
# [11] = system: Polypogon fugax; assay: greenhouse pot test, post-emergence treatment; details: POLFU 4˜4.5 leaves
# Method: as §1, §3, §4, §5
# [12] = system: Veronica didyma; assay: greenhouse pot test, post-emergence treatment; details: VERDI
# Method: as §1, §3, §4, §5
# [13] = system: Alopercurus japonicus; assay: greenhouse pot test, post-emergence early stage treatment; details: ALOJA
# Method: as §1, §3, §4, §5
# [14] = system: Beckmannia syzigachne; assay: as above; details: BECSY 2˜3 leaves
# Method: as §1, §3, §4, §5
# [15] = system: Cerastium arvense; assay: as above
# Method: as §1, §3, §4, §5
# [16] = system: Galium aparine; assay: as above
# Method: as §1, §3, §4, §5
# [17] = system: Poa annua; assay: as above
# Method: as §1, §3, §4, §5
# [18] = system: weeds in rape field; assay: weed control in rape field, descriptive statements
# [19] = system: rape; assay: safety to crops
# Method: The herbicidal activities of the compositions were evaluated by plant symptoms such as stunting, deformity, chlorosis, and whitening. 0 represents that the compositions have no herbicidal effect or have safety to crops. 100 represents that the weeds or crops were completely killed. [table]
smiles,measurement,setting,value
"COc1cc(OC)nc(Oc2ccccc2CNc2ccc(C(=O)OC(C)C)cc2)n1 [Pyribambenz-isopropyl, iso-propyl 4-({2-[(4,6-dimethoxypyrimidin-2-yl)oxy]benzyl}amino)benzoate]",visual evaluation of weed effects,"[1]; ALOAE 0 leaf, 30 g/ha",90%
same,visual evaluation of weed effects,"[1]; ALOAE 0 leaf, 45 g/ha",90%
same,visual evaluation of weed effects,"[1]; ALOAE 3 leaves, 30 g/ha",100%
same,visual evaluation of weed effects,"[1]; ALOAE 3 leaves, 45 g/ha",100%
same,visual evaluation of weed effects,[2]; 30 g/ha,30%
same,visual evaluation of weed effects,[2]; 45 g/ha,30%
same,visual evaluation of weed effects,[3]; 30 g/ha,60%
same,visual evaluation of weed effects,[3]; 45 g/ha,80%
same,visual evaluation of weed effects,[4]; 30 g/ha,60%
same,visual evaluation of weed effects,[4]; 45 g/ha,90%
same,visual evaluation of weed effects,[5]; 30 g/ha,80%
same,visual evaluation of weed effects,[5]; 45 g/ha,80%
same,visual evaluation of weed effects,[6]; 30 g/ha,80%
same,visual evaluation of weed effects,[6]; 45 g/ha,90%
same,visual evaluation of weed effects,[7]; 30 g/ha,85%
same,visual evaluation of weed effects,[7]; 45 g/ha,90%
same,visual evaluation of weed effects,[8]; 30 g/ha,50%
same,visual evaluation of weed effects,[8]; 45 g/ha,60%
same,visual evaluation of weed effects,"[9]; GALAP 7˜8 leaves, 30 g/ha",0%
same,visual evaluation of weed effects,"[9]; GALAP 7˜8 leaves, 45 g/ha",0%
same,visual evaluation of weed effects,"[9]; GALAP, 30 g/ha",20%
same,visual evaluation of weed effects,"[9]; GALAP, 45 g/ha",20%
same,visual evaluation of weed effects,[10]; 30 g/ha,85%
same,visual evaluation of weed effects,[10]; 45 g/ha,90%
same,visual evaluation of weed effects,[11]; 30 g/ha,50%
same,visual evaluation of weed effects,[11]; 45 g/ha,60%
same,visual evaluation of weed effects,[12]; 30 g/ha,20%
same,visual evaluation of weed effects,[12]; 45 g/ha,30%
same,visual evaluation of weed effects,[13]; 30 g/ha,90%
same,visual evaluation of weed effects,[13]; 45 g/ha,90%
same,visual evaluation of weed effects,[14]; 30 g/ha,50%
same,visual evaluation of weed effects,[14]; 45 g/ha,70%
same,visual evaluation of weed effects,"[15]; CERAR 3˜4 leaves, 30 g/ha",40%
same,visual evaluation of weed effects,"[15]; CERAR 3˜4 leaves, 45 g/ha",60%
same,visual evaluation of weed effects,"[15]; CERAR, 30 g/ha",80%
same,visual evaluation of weed effects,"[15]; CERAR, 45 g/ha",90%
same,visual evaluation of weed effects,"[16]; GALAP 7˜8 leaves, 30 g/ha",0%
same,visual evaluation of weed effects,"[16]; GALAP 7˜8 leaves, 45 g/ha",10%
same,visual evaluation of weed effects,"[16]; GALAP, 30 g/ha",30%
same,visual evaluation of weed effects,"[16]; GALAP, 45 g/ha",50%
same,visual evaluation of weed effects,"[17]; POAAN 2˜3 leaves, 30 g/ha",80%
same,visual evaluation of weed effects,"[17]; POAAN 2˜3 leaves, 45 g/ha",95%
same,visual evaluation of weed effects,"[17]; POAAN, 30 g/ha",95%
same,visual evaluation of weed effects,"[17]; POAAN, 45 g/ha",98%
same,weed control,"[18]; Alopecurus aequalis, Alopecurus japonicus, Stellaria aquatica, Stallaria media and Atellaria alsine",high-effectively control; also recorded: effective weed control
same,effectiveness of control,"[18]; second important weeds in rape field: Poa annua, sclerochloa kengiana, Beckmannia syzigachne, Polypogon fugax, broadleaf Cardlamine hirsuta, Galium aparine, Lapsana apogonoides, Hemistepta lyrata",moderate
same,selectivity between rape and weeds,[19]; in vivo,good selectivity
same,safety to crops,[19]; rape / objective crops,safety toward rape
